Values of other authors, collected in patent US20080057086A1, “COLON-TARGETED ORAL FORMULATIONS OF CYTIDINE ANALOGS” (PHARMION CORPORATION, priority 2006, published 2008).

System: total hemoglobin, fetal hemoglobin and F cells
Settings: sickle cell patients; oral THU 200 mg/d alone; cited from earlier work

O=C1NC(O)CCN1[C@@H]1O[C@H](CO)[C@@H](O)[C@H]1O (stereo partly shown) [THU, tetrahydrouridine]
F reticulocyte production: did not result in increased F reticulocyte production
